From US6737383B1, “Herbicidal oxadiazolidines” (priority 1999, dated 2004)

Tests used:
[1] = test system: ladysthumb smartweed; experiment: Test C postemergence ladysthumb smartweed; assay type: in vivo, Polygonum persicaria; conditions: 0 to 100 scale, 0 no effect, 100 complete control
Procedure: (§1) Compounds evaluated in this test were formulated in a non-phytotoxic solvent mixture which included a surfactant and applied to plants that were grown for various periods of time before treatment (postemergence application). A mixture of sandy loam soil and greenhouse potting mix in a 60:40 ratio was used for the postemergence test.
(§2) Plantings of these crops and weed species were adjusted to produce plants of appropriate size for the postemergence test. All plant species were grown using normal greenhouse practices. […]
Treated plants and untreated controls were maintained in a greenhouse for approximately 14, to 21 days, after which all treated plants were compared to untreated controls and visually evaluated. […]

[2] = test system: redroot pigweed; experiment: Test C postemergence redroot pigweed; assay type: in vivo, Amaranthus retroflexus; conditions: 0 to 100 scale, 0 no effect, 100 complete control
Procedure, shortened: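 Visual injury scored 0-100 (100 = complete control) versus untreated plants roughly 14 to 21 days after treatment. Plants were grown to suitable size in 60:40 sandy loam and potting mix, then treated postemergence with surfactant-containing solvent formulations.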

[3] = test system: chickweed; experiment: Test E chickweed; assay type: in vivo, Stellaria media; conditions: Postemergence
Procedure, shortened: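 Compounds formulated in non-phytotoxic solvent mixture with surfactant; for postemergence, sprayed on plants at 1- to 4-leaf stage grown in 60:40 sandy loam/greenhouse potting mix. Kept in greenhouse ~21 to 28 days, then visually rated against untreated controls.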

[4] = test system: deadnettle; experiment: Test E deadnettle; assay type: in vivo, Lamium amplexicaule; conditions: Postemergence
Procedure: as §1, with “in the 1- to 4-leaf stage” for “grown for various periods of time before treatment”
(§3) Plantings of these crops and weed species were adjusted to produce plants of appropriate size for the postemergence test. All plant species were grown using normal greenhouse practices. Crop and weed species include annual bluegrass (Poa annua), blackgrass (Alopecurus myosuroides), black nightshade (Solanum nigra), chickweed (Stellaria media), common poppy (Papaver rhoeas), deadnettle (Lamium amplexicaule), downy brome (Bromus tectorum), field violet (Viola arvensis), galium (Galium aparine), green foxtail (Setaria viridis), Italian ryegrass (Lolium multiflorum), jointed goatgrass (Aegilops cylindrica), kochia (Kochia scoparia), lambsquarters (Chenopodium album), littleseed canarygrass (Phalaris minor), rape (Brassica napus), redroot pigweed (Amaranthus retroflexus), Russian thistle (Salsola kali), scentless chamomile (Matricaria inodora), spring barley (Hordeum vulgare), sugar beet (Beta vulgaris), sunflower (Helianthus annuus), ivyleaf speedwell (Veronica hederaefolia), spring wheat (Triticum aestivum), winter wheat (Triticum aestivum), wild buckwheat (Polygonum convolvulus), wild mustard (Sinapis arvensis), wild oat (Avena fatua), windgrass (Apera spica-venti) and winter barley (Hordeum vulgare).
(§4) Treated plants and untreated controls were maintained in a greenhouse for approximately 21 to 28 days, after which all treated plants were compared to untreated controls and visually evaluated. […] A dash response (-) means no test result.

[5] = test system: sunflower; experiment: Test E sunflower; assay type: in vivo, Helianthus annuus; conditions: Postemergence
Procedure: as §3, with “Plantings of these crops and weed species were adjusted to produce plants of appropriate size for the postemergence test.” left out
as §4

[6] = test system: spring wheat; experiment: Test E spring wheat; assay type: in vivo, Triticum aestivum; conditions: Postemergence
Procedure: as §1, with “in the 1- to 4-leaf stage” for “grown for various periods of time before treatment”
as §3, §4

[7] = test system: windgrass; experiment: Test E windgrass; assay type: in vivo, Apera spica-venti; conditions: Postemergence, Rate 62 g/ha; 0 to 100 scale
Procedure: as §1, with “in the 1- to 4-leaf stage” for “grown for various periods of time before treatment”
as §2
Treated plants and untreated controls were maintained in a greenhouse for approximately 21 to 28 days, after which all treated plants were compared to untreated controls and visually evaluated. […]

[8] = test system: deadnettle; experiment: Test E deadnettle; assay type: in vivo, Lamium amplexicaule; conditions: Preemergence
[9] = test system: littleseed canarygrass; experiment: Test E littleseed canarygrass; assay type: in vivo, Phalaris minor; conditions: Preemergence
[10] = test system: redroot pigweed; experiment: Test E redroot pigweed; assay type: in vivo, Amaranthus retroflexus; conditions: Preemergence
[11] = test system: scentless chamomile; experiment: Test E scentless chamomile; assay type: in vivo, Matricaria inodora; conditions: Preemergence
[12] = test system: spring wheat; experiment: Test E spring wheat; assay type: in vivo, Triticum aestivum; conditions: Preemergence
[13] = Rate 250 g/ha, 0 to 100 scale (0 no effect, 100 complete control)
[14] = Rate 62 g/ha, 0 to 100 scale, 0 no effect, 100 complete control
[15] = Rate 125 g/ha, 0 to 100 scale (0 no effect, 100 complete control)
[16] = Rate 500 g/ha, 0 to 100 scale, 0 no effect, 100 complete control
[17] = Rate 500 g/ha, 0 to 100 scale where 0 is no effect and 100 is complete control

Row | Structure (SMILES) | Plant response rating, Redroot pigweed ([2]; Rate 280 g/ha) | Plant response rating, Redroot pigweed ([2]; Rate 560 g/ha) | Plant response rating, Redroot pigweed ([2]; Rate 1120 g/ha) | Plant response rating, Chickweed ([3]; Rate 62 g/ha, 0 to 100 scale) | Plant response rating, Chickweed ([3]; Rate 125 g/ha, 0 to 100 scale) | Plant response rating, Chickweed [3, 13] | Plant response rating, Deadnettle ([4]; Rate 62 g/ha, 0 to 100 scale) | Plant response rating, Deadnettle ([4]; Rate 125 g/ha, 0 to 100 scale) | Plant response rating, Deadnettle [4, 13] | Plant response rating, Sunflower ([5]; Rate 62 g/ha, 0 to 100 scale) | Plant response rating, Sunflower ([5]; Rate 125 g/ha, 0 to 100 scale) | Plant response rating, Sunflower [5, 13] | Plant response rating, Spring Wheat ([6]; Rate 62 g/ha, 0 to 100 scale) | Plant response rating, Spring Wheat ([6]; Rate 125 g/ha, 0 to 100 scale) | Plant response rating, Spring Wheat [6, 13] | Plant response rating, Windgrass [7] | Plant response rating, Deadnettle [8, 15] | Plant response rating, Deadnettle ([8]; Rate 250 g/ha, 0 to 100 scale) | Plant response rating, LS canarygrass [9, 15] | Plant response rating, LS canarygrass ([9]; Rate 250 g/ha, 0 to 100 scale) | further results
1 | CCn1c(=O)on(C(=O)N(c2ccc(F)cc2)C(C)C)c1=O [Compound 107] | 75 | 80 | 80 | 10 | 0 | 0 | 0 | 5 | 50 | 10 | 20 | 30 | 0 | 5 | 10 | 85 | 60 | 85 | 80 | 80 | Plant response rating Ladysthumb ([1]; Rate 140 g/ha): 0; Plant response rating Ladysthumb ([1]; Rate 560 g/ha): 30; Plant response rating, Deadnettle [8, 14]: 50; Plant response rating, LS canarygrass [9, 14]: 50; Plant response rating, Redroot pigweed [10, 14]: 100; Plant response rating, Redroot pigweed [10, 15]: 100; Plant response rating, Redroot pigweed ([10]; Rate 250 g/ha, 0 to 100 scale): 100; Plant response rating, Scentless chamo [11, 14]: 70; Plant response rating, Scentless chamo [11, 15]: 80; Plant response rating, Scentless chamo ([11]; Rate 250 g/ha, 0 to 100 scale): 90; Plant response rating, Spring Wheat [12, 14]: 60; Plant response rating, Spring Wheat [12, 15]: 75; Plant response rating, Spring Wheat ([12]; Rate 250 g/ha, 0 to 100 scale): 85
2 | CCn1c(=O)on(C(=O)N(c2ccc(F)cc2F)C(C)C)c1=O [Compound 116] | 0 | 0 | 20 | 0 | 0 | 20 | 0 | 0 | 20 | 20 | 0 | 0 | 5 | 0 | 10 | 70 | 95 | 80 | 70 | 80 | Plant response rating, Redroot pigweed ([2]; Rate 140 g/ha): 0; Plant response rating, Chickweed [3, 16]: 50; Plant response rating, Deadnettle [4, 16]: 50; Plant response rating, Sunflower [5, 16]: 0; Plant response rating, Spring Wheat [6, 16]: 10; Plant response rating, Deadnettle [8, 17]: 80; Plant response rating, LS canarygrass [9, 17]: 100; Plant response rating, Redroot pigweed [10, 15]: 100; Plant response rating, Redroot pigweed ([10]; Rate 250 g/ha, 0 to 100 scale): 100; Plant response rating, Redroot pigweed [10, 17]: 100; Plant response rating, Spring Wheat [12, 15]: 15; Plant response rating, Spring Wheat ([12]; Rate 250 g/ha, 0 to 100 scale): 80; Plant response rating, Spring Wheat [12, 17]: 100
